Columns and labels:
[1] = biological target: GDP-bound NRAS wild-type protein (Homo sapiens, UniProt P01111); assay: Binding to NRAS by surface plasmon resonance (SPR), Single Cycle Kinetics; conditions: SPR, GDP-bound NRAS wild-type vs GDP-bound KRAS wild-type
[2] = biological target: GDP-bound HRAS wild-type protein (Homo sapiens, UniProt P01112); assay: Binding to HRAS by surface plasmon resonance (SPR), Single Cycle Kinetics; conditions: SPR, GDP-bound HRAS wild-type vs GDP-bound KRAS wild-type
Sequence of GDP-bound HRAS wild-type protein (P01112 whole entry): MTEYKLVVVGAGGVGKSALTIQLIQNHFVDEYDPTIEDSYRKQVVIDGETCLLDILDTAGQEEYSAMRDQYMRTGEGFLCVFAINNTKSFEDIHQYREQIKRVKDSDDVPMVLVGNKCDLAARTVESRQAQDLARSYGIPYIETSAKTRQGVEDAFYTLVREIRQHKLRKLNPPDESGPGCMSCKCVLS

Sequence of GDP-bound NRAS wild-type protein (P01111 whole entry): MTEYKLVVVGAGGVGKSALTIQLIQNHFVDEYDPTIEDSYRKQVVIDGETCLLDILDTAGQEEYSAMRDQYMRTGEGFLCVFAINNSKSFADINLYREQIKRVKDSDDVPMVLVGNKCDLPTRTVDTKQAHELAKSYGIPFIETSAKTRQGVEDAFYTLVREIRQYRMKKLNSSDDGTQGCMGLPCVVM

| Structure (SMILES) | NRAS/KRAS (ratio of KD value with respect to NRAS to KD value with respect to KRAS) [1] | HRAS/KRAS (ratio of KD value with respect to HRAS to KD value with respect to KRAS) [2] |
| --- | --- | --- |
| CCCOC[C@H]1C(=O)N[C@@H]([C@@H](C)CC)C(=O)N(C2CC2)CC(=O)N(C)[C@H]2C/C=C\CCN(C2=O)[C@@H](CC2CCC(F)(F)CC2)C(=O)N(C)CC(=O)N[C@@H](CCc2ccc(C(F)(F)F)c(OC)c2)C(=O)N2C[C@H](OCC)C[C@H]2C(=O)N(C)C2(CCC2)C(=O)N(C)[C@@H](C2CCCC2)C(=O)N(C)[C@H](C(=O)N(C)C)CC(=O)N1C [PP2354] | A (a compound having 10 or more and less than 20 is denoted as A) | A (a compound having 10 or more and less than 20 is denoted as A) |
| CCOC[C@H]1C(=O)N[C@@H]([C@@H](C)CC)C(=O)N2CCC[C@H]2C(=O)N(C)[C@H]2C/C=C\CCN(C2=O)[C@@H](CC2CCC(F)(F)CC2)C(=O)N(C)CC(=O)N[C@@H](CCc2ccc(C(F)(F)F)c(OC)c2)C(=O)N2C[C@H](OCC)C[C@H]2C(=O)N(C)C2(CCC2)C(=O)N(C)[C@@H](C(CC)CC)C(=O)N(C)[C@H](C(=O)N(C)C)CC(=O)N1C [PP2355] | AA (a compound having 20 or more is denoted as AA) | A (a compound having 10 or more and less than 20 is denoted as A) |
| CCC[C@H]1C(=O)N[C@@H]([C@@H](C)CC)C(=O)N2CCC[C@H]2C(=O)N(C)[C@H]2C/C=C\CCN(C2=O)[C@@H](CC2CCC(F)(F)CC2)C(=O)N(C)CC(=O)N[C@@H](CCc2ccc(C(F)(F)F)c(OC)c2)C(=O)N2C[C@H](OCC)C[C@H]2C(=O)N(C)C2(CCC2)C(=O)N(C)[C@@H](C2CCCC2)C(=O)N(C)[C@H](C(=O)N(C)C)CC(=O)N1C [PP2356] | A (a compound having 10 or more and less than 20 is denoted as A) | A (a compound having 10 or more and less than 20 is denoted as A) |
| CCCOC[C@H]1C(=O)N[C@@H]([C@@H](C)CC)C(=O)N2CCC[C@H]2C(=O)N(C)[C@H]2C/C=C\CCN(C2=O)[C@@H](CC2CCC(F)(F)CC2)C(=O)N(C)CC(=O)N[C@@H](CCc2ccc(C(F)(F)F)c(OC)c2)C(=O)N2C[C@H](OCC)C[C@H]2C(=O)N(C)C2(CCC2)C(=O)N(C)[C@@H](C2CCCC2)C(=O)N(C)[C@H](C(=O)N(C)C)CC(=O)N1C [PP2357] | A (a compound having 10 or more and less than 20 is denoted as A) | B (a compound having 3 or more and less than 10 is denoted as B) |
| CCC[C@H]1C(=O)N[C@@H]([C@@H](C)CC)C(=O)N(C)CC(=O)N(C)[C@H]2C/C=C\CCN(C2=O)[C@@H](Cc2ccc(C(F)(F)F)cc2)C(=O)N(C)CC(=O)N[C@@H](CCc2ccc(C(F)(F)F)c(OC)c2)C(=O)N2C[C@@H](C)C[C@H]2C(=O)N(C)C2(CCC2)C(=O)N(C)[C@@H](C2CCCC2)C(=O)N(C)[C@H](C(=O)N(C)C)CC(=O)N1C [PP2358] | A (a compound having 10 or more and less than 20 is denoted as A) | B (a compound having 3 or more and less than 10 is denoted as B) |
| CCOC[C@H]1C(=O)N[C@@H]([C@@H](C)CC)C(=O)N(C)CC(=O)N(C)[C@H]2C/C=C\CCN(C2=O)[C@@H](Cc2ccc(C(F)(F)F)cc2)C(=O)N(C)CC(=O)N[C@@H](CCc2ccc(C(F)(F)F)c(OC)c2)C(=O)N2C[C@@H](C)C[C@H]2C(=O)N(C)C2(CCC2)C(=O)N(C)[C@@H](C2CCCC2)C(=O)N(C)[C@H](C(=O)N(C)C)CC(=O)N1C [PP2359] | A (a compound having 10 or more and less than 20 is denoted as A) | B (a compound having 3 or more and less than 10 is denoted as B) |
| CCC[C@H]1C(=O)N[C@@H]([C@@H](C)CC)C(=O)N(C2CC2)CC(=O)N(C)[C@H]2C/C=C\CCN(C2=O)[C@@H](Cc2ccc(C(F)(F)F)cc2)C(=O)N(C)CC(=O)N[C@@H](CCc2ccc(C(F)(F)F)c(OC)c2)C(=O)N2C[C@@H](C)C[C@H]2C(=O)N(C)C2(CCC2)C(=O)N(C)[C@@H](C2CCCC2)C(=O)N(C)[C@H](C(=O)N(C)C)CC(=O)N1C [PP2360] | A (a compound having 10 or more and less than 20 is denoted as A) | B (a compound having 3 or more and less than 10 is denoted as B) |
| CCC[C@H]1C(=O)N[C@@H]([C@@H](C)CC)C(=O)N2CCC[C@H]2C(=O)N(C)[C@H]2C/C=C\CCN(C2=O)[C@@H](Cc2ccc(C(F)(F)F)cc2)C(=O)N(C)CC(=O)N[C@@H](CCc2ccc(C(F)(F)F)c(OC)c2)C(=O)N2C[C@@H](C)C[C@H]2C(=O)N(C)C2(CCC2)C(=O)N(C)[C@@H](C2CCCC2)C(=O)N(C)[C@H](C(=O)N(C)C)CC(=O)N1C [PP2362] | A (a compound having 10 or more and less than 20 is denoted as A) | A (a compound having 10 or more and less than 20 is denoted as A) |
| CCOC[C@H]1C(=O)N[C@@H]([C@@H](C)CC)C(=O)N2CCC[C@H]2C(=O)N(C)[C@H]2C/C=C\CCN(C2=O)[C@@H](Cc2ccc(C(F)(F)F)cc2)C(=O)N(C)CC(=O)N[C@@H](CCc2ccc(C(F)(F)F)c(OC)c2)C(=O)N2C[C@@H](C)C[C@H]2C(=O)N(C)C2(CCC2)C(=O)N(C)[C@@H](C2CCCC2)C(=O)N(C)[C@H](C(=O)N(C)C)CC(=O)N1C [PP2363] | A (a compound having 10 or more and less than 20 is denoted as A) | B (a compound having 3 or more and less than 10 is denoted as B) |
| CCC[C@H]1C(=O)N[C@@H]([C@@H](C)CC)C(=O)N(C)CC(=O)N(C)[C@H]2C/C=C\CCN(C2=O)[C@@H](Cc2ccc(C)cc2)C(=O)N(C)CC(=O)N[C@@H](CCc2ccc(C(F)(F)F)c(OC)c2)C(=O)N2C[C@@H](C)C[C@H]2C(=O)N(C)C2(CCC2)C(=O)N(C)[C@@H](C2CCCC2)C(=O)N(C)[C@H](C(=O)N(C)C)CC(=O)N1C [PP2364] | A (a compound having 10 or more and less than 20 is denoted as A) | B (a compound having 3 or more and less than 10 is denoted as B) |
| CCCOC[C@H]1C(=O)N[C@@H]([C@@H](C)CC)C(=O)N(C)CC(=O)N(C)[C@H]2C/C=C\CCN(C2=O)[C@@H](Cc2ccc(C)cc2)C(=O)N(C)CC(=O)N[C@@H](CCc2ccc(C(F)(F)F)c(OC)c2)C(=O)N2C[C@@H](C)C[C@H]2C(=O)N(C)C2(CCC2)C(=O)N(C)[C@@H](C2CCCC2)C(=O)N(C)[C@H](C(=O)N(C)C)CC(=O)N1C [PP2365] | A (a compound having 10 or more and less than 20 is denoted as A) | B (a compound having 3 or more and less than 10 is denoted as B) |
| CCC[C@H]1C(=O)N[C@@H]([C@@H](C)CC)C(=O)N(C2CC2)CC(=O)N(C)[C@H]2C/C=C\CCN(C2=O)[C@@H](Cc2ccc(C)cc2)C(=O)N(C)CC(=O)N[C@@H](CCc2ccc(C(F)(F)F)c(OC)c2)C(=O)N2C[C@@H](C)C[C@H]2C(=O)N(C)C2(CCC2)C(=O)N(C)[C@@H](C2CCCC2)C(=O)N(C)[C@H](C(=O)N(C)C)CC(=O)N1C [PP2366] | A (a compound having 10 or more and less than 20 is denoted as A) | A (a compound having 10 or more and less than 20 is denoted as A) |
| CCCOC[C@H]1C(=O)N[C@@H]([C@@H](C)CC)C(=O)N(C2CC2)CC(=O)N(C)[C@H]2C/C=C\CCN(C2=O)[C@@H](Cc2ccc(C)cc2)C(=O)N(C)CC(=O)N[C@@H](CCc2ccc(C(F)(F)F)c(OC)c2)C(=O)N2C[C@@H](C)C[C@H]2C(=O)N(C)C2(CCC2)C(=O)N(C)[C@@H](C2CCCC2)C(=O)N(C)[C@H](C(=O)N(C)C)CC(=O)N1C [PP2367] | A (a compound having 10 or more and less than 20 is denoted as A) | B (a compound having 3 or more and less than 10 is denoted as B) |
| CCC[C@H]1C(=O)N[C@@H]([C@@H](C)CC)C(=O)N2CCC[C@H]2C(=O)N(C)[C@H]2C/C=C\CCN(C2=O)[C@@H](Cc2ccc(C)cc2)C(=O)N(C)CC(=O)N[C@@H](CCc2ccc(C(F)(F)F)c(OC)c2)C(=O)N2C[C@@H](C)C[C@H]2C(=O)N(C)C2(CCC2)C(=O)N(C)[C@@H](C2CCCC2)C(=O)N(C)[C@H](C(=O)N(C)C)CC(=O)N1C [PP2368] | A (a compound having 10 or more and less than 20 is denoted as A) | A (a compound having 10 or more and less than 20 is denoted as A) |
| CCCOC[C@H]1C(=O)N[C@@H]([C@@H](C)CC)C(=O)N2CCC[C@H]2C(=O)N(C)[C@H]2C/C=C\CCN(C2=O)[C@@H](Cc2ccc(C)cc2)C(=O)N(C)CC(=O)N[C@@H](CCc2ccc(C(F)(F)F)c(OC)c2)C(=O)N2C[C@@H](C)C[C@H]2C(=O)N(C)C2(CCC2)C(=O)N(C)[C@@H](C2CCCC2)C(=O)N(C)[C@H](C(=O)N(C)C)CC(=O)N1C [PP2369] | A (a compound having 10 or more and less than 20 is denoted as A) | B (a compound having 3 or more and less than 10 is denoted as B) |
